The results in this text go back to ChEMBL document CHEMBL1201862, “PubChem BioAssay data set” (2004).

Activity calls are given as the source filed them.

Test [1] concerns the target G-protein coupled receptor 55 (Homo sapiens, UniProt Q9Y2T6). In words: inhibition of LPI-stimulated GPR55 beta-arrestin translocation – imaging, U2OS, beta-arrestin-GFP, LPI agonist, primary screen (AID 2013).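 Note: antagonist potency measured as reduced agonist-driven arrestin aggregation.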 The test is classed as functional.
Test [2] has as its target Peroxisome proliferator-activated receptor gamma/Nuclear receptor corepressor 2 (Homo sapiens, UniProt P37231+Q9Y618). The test is classed as functional.
The target of test [3] is Photoreceptor-specific nuclear receptor (Homo sapiens, UniProt Q9Y5X4). The test is classed as functional.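 Note: potency for compounds that break the NR2E3 corepressor complex and count as activators.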
Photoreceptor-specific nuclear receptor, sequence (Q9Y5X4 whole entry): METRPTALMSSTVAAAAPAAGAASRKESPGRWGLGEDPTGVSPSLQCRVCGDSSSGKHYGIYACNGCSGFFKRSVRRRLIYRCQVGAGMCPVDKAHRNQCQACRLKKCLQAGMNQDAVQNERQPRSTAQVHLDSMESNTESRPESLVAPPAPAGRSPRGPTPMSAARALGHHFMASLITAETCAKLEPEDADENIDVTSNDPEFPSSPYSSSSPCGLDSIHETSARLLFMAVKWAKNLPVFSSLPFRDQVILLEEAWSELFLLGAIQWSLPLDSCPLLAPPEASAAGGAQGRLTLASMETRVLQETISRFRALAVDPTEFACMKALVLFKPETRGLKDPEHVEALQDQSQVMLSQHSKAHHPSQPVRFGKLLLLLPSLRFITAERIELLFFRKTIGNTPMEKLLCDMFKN
Test [4] has as its target Procathepsin L (Homo sapiens, UniProt P07711).
Test [5] deals with T1, Aspartyl aminopeptidase (Plasmodium falciparum 3D7, UniProt Q8I2J3).
T1 sequence (Q8I2J3 whole entry): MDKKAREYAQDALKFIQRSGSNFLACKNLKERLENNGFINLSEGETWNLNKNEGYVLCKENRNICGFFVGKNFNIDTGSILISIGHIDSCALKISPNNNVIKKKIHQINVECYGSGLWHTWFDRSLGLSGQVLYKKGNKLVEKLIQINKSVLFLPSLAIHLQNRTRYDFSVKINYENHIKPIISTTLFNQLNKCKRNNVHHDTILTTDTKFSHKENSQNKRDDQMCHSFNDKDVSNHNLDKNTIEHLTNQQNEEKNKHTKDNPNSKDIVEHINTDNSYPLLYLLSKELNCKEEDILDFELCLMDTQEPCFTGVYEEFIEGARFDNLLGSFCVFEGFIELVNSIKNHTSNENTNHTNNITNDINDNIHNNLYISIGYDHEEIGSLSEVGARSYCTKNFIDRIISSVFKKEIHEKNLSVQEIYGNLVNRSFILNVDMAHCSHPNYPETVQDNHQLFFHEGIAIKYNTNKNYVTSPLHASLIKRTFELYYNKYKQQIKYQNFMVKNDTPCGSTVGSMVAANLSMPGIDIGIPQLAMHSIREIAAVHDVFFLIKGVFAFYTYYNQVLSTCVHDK

In test [6] the test system is H4. Briefly: Luminescence Cell-Based Dose Response HTS to Identify Activators of 5'UTR Stem-Loop Driven Prion Protein mRNA Translation in H4 Neuroglioblastoma Cells. [Related pubchem assays: 1829 (Project Summary), 1814 (Primary HTS)]. The test is classed as functional. As to conditions: Homo sapiens.
Test [7] is described as follows: Luminescence Cell-Based Dose Confirmation HTS to Identify Activators of 5'UTR Stem-Loop Driven Alpha-Synuclein mRNA Translation in H4 Neuroglioblastoma Cells. [Related pubchem assays: 1829 (Project Summary), 1814 (Primary HTS)]. The test is classed as functional.
Test [8] is described as follows: Luminescence Cell-Based Dose Response HTS to Identify Activators of Luciferase Translation or Activity in H4 […] Cells. [Related pubchem assays: 1829 (Project Summary), 1814 (Primary HTS)]. The test is classed as functional.
The target of test [9] is Beta-galactosidase (Escherichia coli, UniProt Q8VNN2). In words: detection-enzyme interference by beta-gal modulators – biochemical, E. coli enzyme, set 3, artefact control for CCR6 antagonist project, dose response (AID 504712). The test is classed as functional.
Beta-galactosidase, sequence (Q8VNN2 whole entry): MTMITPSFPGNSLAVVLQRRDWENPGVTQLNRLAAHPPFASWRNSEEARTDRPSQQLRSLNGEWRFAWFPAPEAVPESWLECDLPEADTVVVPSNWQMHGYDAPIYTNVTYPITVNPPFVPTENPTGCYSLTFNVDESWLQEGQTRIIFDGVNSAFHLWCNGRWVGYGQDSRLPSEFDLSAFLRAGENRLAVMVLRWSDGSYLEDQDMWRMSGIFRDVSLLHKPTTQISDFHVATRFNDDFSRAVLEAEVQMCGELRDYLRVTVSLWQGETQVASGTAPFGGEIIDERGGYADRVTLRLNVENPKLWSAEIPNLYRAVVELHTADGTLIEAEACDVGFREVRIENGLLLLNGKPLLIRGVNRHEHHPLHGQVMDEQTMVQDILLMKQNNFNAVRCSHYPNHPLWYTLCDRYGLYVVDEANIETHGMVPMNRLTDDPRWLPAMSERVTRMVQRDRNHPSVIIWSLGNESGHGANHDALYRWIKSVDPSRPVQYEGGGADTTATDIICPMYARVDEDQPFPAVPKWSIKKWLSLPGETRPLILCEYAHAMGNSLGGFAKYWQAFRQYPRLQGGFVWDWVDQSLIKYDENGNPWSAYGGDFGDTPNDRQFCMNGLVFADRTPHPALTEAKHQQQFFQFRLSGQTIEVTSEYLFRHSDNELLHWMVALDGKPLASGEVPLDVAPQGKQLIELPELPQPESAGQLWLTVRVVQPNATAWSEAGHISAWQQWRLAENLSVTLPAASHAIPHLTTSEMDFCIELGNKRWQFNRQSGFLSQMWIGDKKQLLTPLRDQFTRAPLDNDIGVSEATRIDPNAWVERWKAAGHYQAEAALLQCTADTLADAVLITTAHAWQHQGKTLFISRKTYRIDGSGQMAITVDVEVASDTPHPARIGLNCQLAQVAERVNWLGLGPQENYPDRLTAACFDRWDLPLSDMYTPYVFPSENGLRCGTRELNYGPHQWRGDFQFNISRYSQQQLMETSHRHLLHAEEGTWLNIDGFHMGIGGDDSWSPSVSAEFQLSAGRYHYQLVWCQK
Test [10] concerns the target C-C chemokine receptor type 6 (Homo sapiens, UniProt P51684). In words: antagonism of CCR6 beta-arrestin recruitment – cell-based, luminescent beta-arrestin readout, dose response (AID 504728). The test is classed as functional.
The target in test [11] is NACHT, LRR and PYD domains-containing protein 3 (Homo sapiens, UniProt Q96P20). In words: NALP3 inhibitors in yeast, dose response, luminescent (AID 488799). The test is classed as functional.
Test [12] deals with T2, Coagulation factor XII (Homo sapiens, UniProt P00748).
T2 sequence (P00748 whole entry): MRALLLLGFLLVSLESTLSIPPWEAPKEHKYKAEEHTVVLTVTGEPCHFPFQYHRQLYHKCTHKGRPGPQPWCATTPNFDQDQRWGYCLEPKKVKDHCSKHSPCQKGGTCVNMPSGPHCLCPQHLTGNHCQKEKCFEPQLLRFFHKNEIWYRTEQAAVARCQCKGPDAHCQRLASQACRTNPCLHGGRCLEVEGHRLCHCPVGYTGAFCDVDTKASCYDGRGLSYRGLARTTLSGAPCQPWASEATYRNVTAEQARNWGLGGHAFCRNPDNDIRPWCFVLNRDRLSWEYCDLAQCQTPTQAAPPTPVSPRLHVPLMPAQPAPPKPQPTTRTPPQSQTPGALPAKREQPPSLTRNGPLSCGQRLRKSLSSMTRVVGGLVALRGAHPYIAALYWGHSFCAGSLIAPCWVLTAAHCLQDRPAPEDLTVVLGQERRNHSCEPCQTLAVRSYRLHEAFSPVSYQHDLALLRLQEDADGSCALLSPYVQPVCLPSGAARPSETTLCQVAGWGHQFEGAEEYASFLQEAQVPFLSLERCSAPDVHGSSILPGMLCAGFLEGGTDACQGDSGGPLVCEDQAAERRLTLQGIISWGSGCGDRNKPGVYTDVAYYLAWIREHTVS
In words: Factor XIIa Dose Response Confirmation from Single Well HTS. [Related pubchem assays (depositor defined):AID701]. The test is classed as functional.

For test [13], the system named is HeLa. In words: viability loss in HeLa cells – cell-based, 24 h, cherry-picked samples, cytotoxicity control, dose response (AID 504726).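 Note: potency for cytotoxicity as loss of luminescence signal.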 The test is classed as functional. As to conditions: Homo sapiens.
In test [14] the test system is Staphylococcus aureus. In words: Inhibitors of Bacterial Quorum Sensing Structure Activity Relationship (SAR) Analysis: Dose Response Assay. [Related pubchem assays: 700, 527 ]. The test is classed as functional, organism-based.
The target in test [15] is Neurotensin receptor type 1 (Homo sapiens, UniProt P30989). The test is classed as functional.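 Note: Image-based confirmatory dose-response assay measuring agonist activity at NTR1; NTR1-expressing U2OS osteosarcoma cells imaged for beta-arrestin GFP spot formation; agonist potency where compounds increase beta-arrestin recruitment.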
Neurotensin receptor type 1, sequence (P30989 whole entry): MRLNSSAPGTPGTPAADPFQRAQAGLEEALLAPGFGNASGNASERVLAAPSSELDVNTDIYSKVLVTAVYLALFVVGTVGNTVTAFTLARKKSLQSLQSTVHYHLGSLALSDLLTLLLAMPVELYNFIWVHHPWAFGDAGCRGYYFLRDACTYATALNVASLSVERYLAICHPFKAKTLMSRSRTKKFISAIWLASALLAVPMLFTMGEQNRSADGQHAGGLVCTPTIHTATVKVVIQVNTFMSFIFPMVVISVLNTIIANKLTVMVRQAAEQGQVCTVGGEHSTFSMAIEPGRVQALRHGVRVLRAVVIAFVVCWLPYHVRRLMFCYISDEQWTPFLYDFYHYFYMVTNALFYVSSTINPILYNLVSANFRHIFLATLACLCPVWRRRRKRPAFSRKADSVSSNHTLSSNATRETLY
Test [16] has as its system BJ. In words: cells. The note with it: Homo sapiens. The test is classed as functional, cell-based.
Test [17] has as its system BJ. In words: BJ-TERT-LT-ST fibroblast viability loss – cell-based, RAS-independent, luminescence, dose response (AID 1935).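 Note: BJ fibroblasts immortalized with TERT plus LT and ST oncogenes.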 The test is classed as functional. The note with it: Homo sapiens.
Test [18] has as its system BJ. Briefly: BJ-TERT fibroblast viability loss – cell-based, RAS-independent, luminescence, dose response (AID 1933). The test is classed as functional. As to conditions: Homo sapiens.
A short description of test [19]: microbe, parasite or virus in culture. The note with it: Mycobacterium tuberculosis. The test is classed as functional.
The nature of test [20]: DRD fibroblast viability loss – cell-based, non-viral oncogenic, luminescence, dose response (AID 1934). As to conditions: Homo sapiens. The test is classed as functional.
Test [21] addresses Glyceraldehyde-3-phosphate dehydrogenase (Homo sapiens, UniProt P04406).
The target of test [22] is Alkaline phosphatase, placental type (Homo sapiens, UniProt P05187). In words: human placental alkaline phosphatase inhibition – biochemical, luminescence, confirmation (AID 1512). The test is classed as functional.
Alkaline phosphatase, placental type, sequence (P05187 whole entry): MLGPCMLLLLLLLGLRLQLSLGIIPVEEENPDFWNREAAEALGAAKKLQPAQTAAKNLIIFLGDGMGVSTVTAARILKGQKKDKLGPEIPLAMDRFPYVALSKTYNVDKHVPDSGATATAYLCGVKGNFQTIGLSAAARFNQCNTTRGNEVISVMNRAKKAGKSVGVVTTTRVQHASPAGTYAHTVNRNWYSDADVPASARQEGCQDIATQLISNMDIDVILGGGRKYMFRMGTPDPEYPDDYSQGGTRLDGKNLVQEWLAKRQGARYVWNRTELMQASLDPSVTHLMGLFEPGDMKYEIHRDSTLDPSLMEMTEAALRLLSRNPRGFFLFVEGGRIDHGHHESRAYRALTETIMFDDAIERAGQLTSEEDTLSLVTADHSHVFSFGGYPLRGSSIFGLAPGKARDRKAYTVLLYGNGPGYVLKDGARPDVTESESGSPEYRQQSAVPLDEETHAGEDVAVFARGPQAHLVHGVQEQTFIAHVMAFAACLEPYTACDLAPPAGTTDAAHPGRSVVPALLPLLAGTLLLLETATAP
In test [23] the target is Lysosomal acid glucosylceramidase (Homo sapiens, UniProt P04062). Briefly: Dose response cell-based high throughput screening assay to identify enhancers of beta-glucosidase activity. [Related pubchem assays: 784 ]. The test is classed as functional.
Test [24] deals with Trypanosoma cruzi. In words: anti-trypanosomal activity in host cells – cell-based, plate reader, dry powder, set 3, dose response (AID 493197). The test is classed as functional.
Test [25] deals with Voltage-dependent T-type calcium channel subunit alpha-1H (Homo sapiens, UniProt O95180). The test is classed as functional.
The target in test [26] is T3, Oxysterols receptor LXR-beta (Homo sapiens, UniProt P55055).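 Note: agonist activity at LXR measured by a cell-based luminescence readout across a dose range, run as a counterscreen for daf-12 agonists; HEK293 cells with Gal4-LXR fusion and GAL4-driven luciferase reporter; potency for activation of Gal4-LXR reporter so compounds are agonists.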
T3 sequence (P55055 whole entry): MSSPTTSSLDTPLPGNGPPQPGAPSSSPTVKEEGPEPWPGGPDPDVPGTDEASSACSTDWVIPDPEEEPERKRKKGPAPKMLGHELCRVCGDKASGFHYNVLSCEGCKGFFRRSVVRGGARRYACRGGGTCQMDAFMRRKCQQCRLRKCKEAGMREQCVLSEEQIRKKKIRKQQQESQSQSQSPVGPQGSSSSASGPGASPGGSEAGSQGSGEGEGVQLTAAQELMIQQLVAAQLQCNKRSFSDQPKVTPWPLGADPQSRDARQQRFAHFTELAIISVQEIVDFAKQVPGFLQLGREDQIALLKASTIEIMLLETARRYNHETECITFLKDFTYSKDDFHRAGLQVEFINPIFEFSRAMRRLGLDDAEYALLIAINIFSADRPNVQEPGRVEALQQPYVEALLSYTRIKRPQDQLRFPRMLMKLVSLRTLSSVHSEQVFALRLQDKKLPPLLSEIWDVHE
The test is classed as functional, cell-based.

Test [27] in a line: viability loss in HepG2 hepatoma cells – cell-based, ATP luminescence, cherry-pick, activator set 2, cytotoxicity control, dose response (AID 1053143). The test is classed as functional.
Test [28] has as its target Cyclin-dependent kinase 5/CDK5 activator 1 (Homo sapiens, UniProt Q00535). Briefly: blockade of human CDK5 activity – biochemical, cherry-picked samples, set 2, dose response (AID 504545).
Test [29] has as its target Cytochrome P450 3A4 (Homo sapiens, UniProt P08684). As to conditions: Potency.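 Note: confirmatory qHTS run detecting inhibitors and substrates of CYP3A4.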
Test [30] deals with Cytochrome P450 2C9 (Homo sapiens, UniProt P11712). The note with it: Potency.
Cytochrome P450 2C9, sequence (P11712 whole entry): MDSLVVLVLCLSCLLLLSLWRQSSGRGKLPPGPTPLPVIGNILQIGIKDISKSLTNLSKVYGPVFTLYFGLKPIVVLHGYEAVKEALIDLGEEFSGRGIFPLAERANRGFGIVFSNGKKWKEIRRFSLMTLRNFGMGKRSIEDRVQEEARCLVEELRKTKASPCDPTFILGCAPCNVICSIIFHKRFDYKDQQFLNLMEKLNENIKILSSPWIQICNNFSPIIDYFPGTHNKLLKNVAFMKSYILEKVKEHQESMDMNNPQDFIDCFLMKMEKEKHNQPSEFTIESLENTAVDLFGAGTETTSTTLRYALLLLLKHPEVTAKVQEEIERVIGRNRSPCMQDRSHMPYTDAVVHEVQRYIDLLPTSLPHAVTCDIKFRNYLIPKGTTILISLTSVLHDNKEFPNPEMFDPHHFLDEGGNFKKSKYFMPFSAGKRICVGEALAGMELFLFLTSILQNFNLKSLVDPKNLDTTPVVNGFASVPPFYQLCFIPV
Test [31] deals with Melanin-concentrating hormone receptor 1 (Homo sapiens, UniProt Q99705). In words: Fluorescence-based counterscreen for antagonists of the G-protein coupled receptor 7 (GPR7): cell-based high throughput dose response assay to identify antagonists of the melanin-concentrating hormone receptor 1 (MCHR1). The test is classed as functional.
Melanin-concentrating hormone receptor 1, sequence (Q99705 whole entry): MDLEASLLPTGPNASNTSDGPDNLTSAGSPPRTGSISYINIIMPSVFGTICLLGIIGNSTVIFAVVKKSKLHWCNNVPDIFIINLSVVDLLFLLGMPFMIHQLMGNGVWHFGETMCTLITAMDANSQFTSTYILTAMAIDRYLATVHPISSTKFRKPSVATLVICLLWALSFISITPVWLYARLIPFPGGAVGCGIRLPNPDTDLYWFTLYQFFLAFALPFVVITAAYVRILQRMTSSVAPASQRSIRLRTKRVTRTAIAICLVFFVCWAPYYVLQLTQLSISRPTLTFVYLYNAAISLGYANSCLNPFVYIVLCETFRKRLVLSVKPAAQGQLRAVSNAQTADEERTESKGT
Test [32] is described as follows: Cytotoxicity screening for potential Inhibitors of Bacterial Capsule Biogenesis. [Related pubchem assays (depositor defined):AID488970]. The test is classed as functional.
Test [33] has as its target T4, Microphthalmia-associated transcription factor (Homo sapiens, UniProt O75030).
T4 sequence (O75030 whole entry): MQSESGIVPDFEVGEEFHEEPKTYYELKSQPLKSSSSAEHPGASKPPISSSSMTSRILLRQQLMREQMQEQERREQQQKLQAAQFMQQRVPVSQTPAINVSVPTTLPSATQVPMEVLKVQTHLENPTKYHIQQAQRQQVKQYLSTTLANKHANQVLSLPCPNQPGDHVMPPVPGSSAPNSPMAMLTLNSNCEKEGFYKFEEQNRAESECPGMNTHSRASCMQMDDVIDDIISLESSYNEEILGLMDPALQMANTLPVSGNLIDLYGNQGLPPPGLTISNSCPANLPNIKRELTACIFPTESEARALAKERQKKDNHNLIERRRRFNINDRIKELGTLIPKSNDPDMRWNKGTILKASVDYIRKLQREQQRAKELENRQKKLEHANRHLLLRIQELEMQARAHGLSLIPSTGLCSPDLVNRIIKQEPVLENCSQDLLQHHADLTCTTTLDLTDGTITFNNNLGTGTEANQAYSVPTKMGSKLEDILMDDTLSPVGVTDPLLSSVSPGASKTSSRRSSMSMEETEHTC
In words: reducers of TRPM1 reporter luminescence, concentration series – cell-based, SK-MEL-5, cherry-picked, set 3, MITF inhibitor project, dose response (AID 493073).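 Note: SK-MEL-5 melanoma cells with luciferase driven by the MITF target TRPM1 promoter.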 The test is classed as functional.

Glyceraldehyde-3-phosphate dehydrogenase, sequence (P04406 whole entry): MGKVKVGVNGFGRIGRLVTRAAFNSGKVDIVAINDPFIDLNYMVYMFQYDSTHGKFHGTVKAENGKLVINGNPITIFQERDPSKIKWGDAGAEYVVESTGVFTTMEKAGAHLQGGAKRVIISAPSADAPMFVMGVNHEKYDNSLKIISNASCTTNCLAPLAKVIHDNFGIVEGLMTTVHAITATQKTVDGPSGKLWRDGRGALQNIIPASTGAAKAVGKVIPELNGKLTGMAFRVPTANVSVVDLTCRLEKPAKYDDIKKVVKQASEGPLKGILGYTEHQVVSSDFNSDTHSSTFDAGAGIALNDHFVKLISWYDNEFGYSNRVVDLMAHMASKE
Cyclin-dependent kinase 5/CDK5 activator 1, sequence (Q00535 whole entry): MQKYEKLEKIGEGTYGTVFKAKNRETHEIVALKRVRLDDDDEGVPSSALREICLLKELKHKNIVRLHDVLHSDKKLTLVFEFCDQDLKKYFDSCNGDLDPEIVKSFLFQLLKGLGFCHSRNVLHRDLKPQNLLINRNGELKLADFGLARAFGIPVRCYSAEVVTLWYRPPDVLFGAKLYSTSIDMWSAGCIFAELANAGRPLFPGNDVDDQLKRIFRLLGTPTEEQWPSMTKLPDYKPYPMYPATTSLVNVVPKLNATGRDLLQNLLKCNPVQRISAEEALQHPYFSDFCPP
Cyclin-dependent kinase 5/CDK5 activator 1, sequence (Q15078 whole entry, further chain): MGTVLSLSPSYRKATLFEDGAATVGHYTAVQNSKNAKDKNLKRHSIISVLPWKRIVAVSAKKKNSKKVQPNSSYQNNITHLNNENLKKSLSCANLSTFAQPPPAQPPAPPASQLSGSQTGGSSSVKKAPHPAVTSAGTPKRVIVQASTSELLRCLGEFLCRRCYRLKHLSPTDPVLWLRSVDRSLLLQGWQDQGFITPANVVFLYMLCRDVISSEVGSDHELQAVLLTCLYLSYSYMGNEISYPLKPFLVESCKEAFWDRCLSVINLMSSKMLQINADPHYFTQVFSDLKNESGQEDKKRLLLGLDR
G-protein coupled receptor 55, sequence (Q9Y2T6 whole entry): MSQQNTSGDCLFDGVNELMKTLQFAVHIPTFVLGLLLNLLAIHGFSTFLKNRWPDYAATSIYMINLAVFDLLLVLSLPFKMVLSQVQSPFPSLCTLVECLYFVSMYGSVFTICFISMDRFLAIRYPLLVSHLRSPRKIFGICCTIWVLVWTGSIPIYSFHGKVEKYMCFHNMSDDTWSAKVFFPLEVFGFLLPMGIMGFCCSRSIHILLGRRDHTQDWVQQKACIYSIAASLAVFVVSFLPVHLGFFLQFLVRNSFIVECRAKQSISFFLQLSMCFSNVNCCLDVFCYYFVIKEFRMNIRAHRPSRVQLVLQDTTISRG
C-C chemokine receptor type 6, sequence (P51684 whole entry, the tested form may be a part): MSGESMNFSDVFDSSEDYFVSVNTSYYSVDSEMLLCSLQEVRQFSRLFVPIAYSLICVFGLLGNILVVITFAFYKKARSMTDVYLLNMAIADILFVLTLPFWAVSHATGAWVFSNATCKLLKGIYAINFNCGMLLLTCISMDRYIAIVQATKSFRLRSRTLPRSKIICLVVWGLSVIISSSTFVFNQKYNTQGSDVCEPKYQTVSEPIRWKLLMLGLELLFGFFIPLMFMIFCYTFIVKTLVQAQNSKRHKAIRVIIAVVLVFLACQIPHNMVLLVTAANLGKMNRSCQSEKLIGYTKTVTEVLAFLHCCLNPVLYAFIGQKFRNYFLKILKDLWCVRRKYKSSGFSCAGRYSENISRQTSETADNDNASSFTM

Consider `COC(=O)C1=C(C)N(Cc2ccccc2)C(NCc2cc(OC)c(OC)c(OC)c2)=N[C@H]1c1ccccc1`, for which the IC50 in [1] is 3.93 µM (active). `O=C(O)C1CCN(c2nc(-c3ccccc3)c3cc(Br)ccc3n2)CC1`: the IC50 in [2] was 2.33 µM (active); in test [3], > 39.8 µM (not active).

On to `COc1cc([N+](=O)[O-])ccc1N=C(S)Nn1cnnc1`, for which the figures for the IC50 in [4] and in test [5] were > 59.6 µM (not active) and 0.854 µM (active), respectively. `O=C(CSc1nccn1-c1ncc(C(F)(F)F)cc1Cl)c1ccc(Br)cc1`: the EC50 is 7.85 µM (active) in test [6], 0.247 µM (active) in test [7] and 0.233 µM (active) in test [8]. The IC50 in test [9] and in test [10] was > 66.6 µM (inactive) in each case. Consider `Cn1c(=O)c(C(=O)Nc2ncccn2)c(O)c2ccccc21`, for which the 50% inhibitory concentration (IC50) in test [11] was 13.6 µM (active). As to `N#CC1=C2SCC(O)(c3ccccc3)N2C(=O)CC1c1ccccc1F` (stereo not drawn), the IC50 in test [12] is 2.02 µM (active). As to `Cc1cccc(Nc2nc(N)c([N+](=O)[O-])c(NCc3ccccc3)n2)c1`, the AC50 in [13] was 25 µM (active). Regarding `O=C(O)c1cccnc1Nc1cccc(SC(F)(F)F)c1`, in test [14], the IC50 was 0.964 µM (active). Consider `COc1cc(C(=O)/C=C/c2cccnc2)c([N+](=O)[O-])cc1OC`, for which the EC50 in test [15] is 32.1 µM (inactive); in [16], 18.6 µM (active); in test [17], > 75 µM (not active); in test [18], 13 µM (active); in [20] it was 9.22 µM (active). Moreover, the CC50 in [19] is 15.6 µM (active). As to `CC(C)NC(=O)c1cc(-c2ccc(Cl)cc2Cl)n[nH]1`, the IC50 in test [21] was > 100 µM (not active); in test [22] it was > 100 µM (inactive). Turning to `O=C(NCCCN1CCCC1=O)c1ccc2c(=O)n(Cc3ccco3)c(=S)[nH]c2c1`, the EC50 in test [23] is given as > 50 µM (not active). In the case of `CCCNC(=O)C1(C)CCCN(Cc2cccc(Oc3ccccc3)c2)C1` (stereo not drawn), the half-maximal activity concentration (AC50) in test [24] was 9.13 µM (active). Turning to `COc1ccc(-c2noc(CCC(=O)N(C)c3cccc(C)c3)n2)cc1`, in test [25], the EC50 is 6.52 µM (active). On to `COc1ccc(Nc2nccc(-c3cccc(N)c3)n2)cc1`, for which the EC50 in test [26] is > 67.5 µM (inactive). Further, the AC50 is 18.8 µM (active) in test [27] and 80.7 µM (active) in test [28]. In the case of `CCC12C=C(/C=C/c3ccccc3)C(CC)(C1)C(c1ccccc1)CC2=O` (stereo not drawn), the results for the AC50 in [29] and in test [30] were 6.31 µM (inconclusive) and 1.58 µM (inconclusive), respectively. With `COc1ccnc(Oc2ccc(F)cc2)c1C(=O)N=CNOCc1ccc(F)cc1`, the IC50 in [31] is recorded as 30.3 µM (not active). Consider `N=c1n(CCN2CCCC2)c2ccccc2n1CC(O)c1ccc(Cl)c(Cl)c1` (stereo not drawn), for which the CC50 in test [32] was 7.43 µM (active). Moreover, the AC50 in [33] is 11.8 µM (active).
